# Source: publication PMC12005229, “Final results from the phase Ia/Ib study of the novel bromodomain and extra-terminal domain inhibitor, BI 894999, in patients with advanced solid tumors or diffuse large B-cell lymphoma” (ESMO Open, 2025)
# System: patients with advanced solid tumors (SCLC, CRC, mCRPC, NUT carcinoma)
# Experiment: phase Ib expansion: tumor response (RECIST 1.1), PFS, OS
# Format: in vivo, human
# Conditions: for Best overall response: complete response / Best overall response: not evaluable / Best overall response: partial response / Best overall response: progressive disease / Best overall response: stable disease / Disease control / Median PFS / Objective response / Median OS: phase Ib
# Experimental: PFS was measured for the period from the start of treatment to the occurrence of progressive disease or death. Tumor response was measured using RECIST 1.1[28] for patients with solid tumors and RECIL 2017[29] for those with DLBCL. OS was assessed in patients with NUT carcinoma; the OS status was to continue until 12 months after the end of the study.
# Supplementary Table 1. […]
# • Objective response (OR), defined as complete response (CR) or partial response (PR) with tumor assessment during treatment period for each schedule according to Response Evaluation Criteria in Solid Tumors (RECIST) version 1.1. For DLBCL patients, a minor response according to Response Evaluation Criteria in Lymphoma (RECIL) 2017 was not part of an OR […]
# • Progression-free survival (PFS), defined from date of start of BI 894999 to the date of objective disease progression or death, whichever was earlier, with tumor assessment every 2 cycles (every 6 weeks for Schedule B if no delays or as close as possible to the end of the second of the 2 cycles of treatment if there was a delay) during the treatment period
# Radiological PFS with tumor assessment by bone scan every 4 cycles for mCRPC patients with non-measurable disease by RECIST 1.1 […]
# • Overall survival in patients with NUT carcinoma. This was for patients in the trial after approval of […]
# The overall survival status was to continue until 12 months after the end of trial […]
# AUC0–24, area under the plasma concentration–time curve over the 24-hour dosing interval; AUCτ, ss , area under the plasma concentration–time curve over the dosing interval τ at steady state; AE, adverse event; Cmax, maximal exposure; Cma x , s s , maximal exposure at steady state; DLBCL, diffuse large B- cell lymphoma; DLT, dose-limiting toxicity; mCRPC, metastatic castration-resistant prostate cancer; NUT, nuclear protein in […]
smiles,measurement,setting,value
CNc1nc(-c2nc3ccc(N4CCN(C)CC4)cc3n2Cc2ccccc2)cn2c(C)nnc12 [BI 894999],patients with SD,CRC,2 n
same,observed objective response rate,NUT carcinoma,< 10%
same,patients not assessable,"NUT carcinoma, 42 patients",19.0%
same,patients with SD,"NUT carcinoma, 42 patients",31.0%
same,patients with complete response,"NUT carcinoma, 42 patients",1 n
same,patients with confirmed CR,"NUT carcinoma, 42 patients",2.4%
same,patients with disease control,"NUT carcinoma, 42 patients",16 patients
same,patients with progressive disease,"NUT carcinoma, 42 patients",42.9%
same,patients with responses,"NUT carcinoma, 42 patients",7.1%
same,duration of response (DOR) of confirmed CR,"NUT carcinoma, one patient",253 days
same,duration of response (DOR) of confirmed PR,"NUT carcinoma, one patient",588 days
same,patients with SD,SCLC,1 n
same,patients with SD,mCRPC,2 n
same,duration of response (DOR) of confirmed PR,"mCRPC, one patient",46 days
same,patients not assessable,other solid tumor types n = 37,24.3%
same,patients with SD,other solid tumor types n = 37,13.5%
same,patients with confirmed PR (mCRPC),other solid tumor types n = 37,2.7%
same,patients with progressive disease,other solid tumor types n = 37,59.5%
same,patients with confirmed CR (BOR),phase Ib n = 79,1.3%
same,Best overall response: complete response,CRC,0 (0.0) n (%)
same,Best overall response: not evaluable,CRC,2 (14.3) n (%)
same,Best overall response: partial response,CRC,0 (0.0) n (%)
same,Best overall response: progressive disease,CRC,10 (71.4) n (%)
same,Best overall response: stable disease,CRC,2 (14.3) n (%)
same,Disease control,CRC,2 (14.3) n (%)
same,Median PFS,CRC,5.6 weeks
same,Objective response,CRC,0 (0.0) n (%)
same,Best overall response: complete response,NUT carcinoma (Schedule B),0 (0.0) n (%)
same,Best overall response: not evaluable,NUT carcinoma (Schedule B),3 (15.0) n (%)
same,Best overall response: partial response,NUT carcinoma (Schedule B),1 (5.0) n (%)
same,Best overall response: progressive disease,NUT carcinoma (Schedule B),9 (45.0) n (%)
same,Best overall response: stable disease,NUT carcinoma (Schedule B),7 (35.0) n (%)
same,Disease control,NUT carcinoma (Schedule B),8 (40.0) n (%)
same,Median OS,NUT carcinoma (Schedule B),6.6 weeks
same,Median PFS,NUT carcinoma (Schedule B),6.9 weeks
same,Objective response,NUT carcinoma (Schedule B),1 (5.0) n (%)
same,Best overall response: complete response,NUT carcinoma (Schedule C),1 (4.5) n (%)
same,Best overall response: not evaluable,NUT carcinoma (Schedule C),5 (22.7) n (%)
same,Best overall response: partial response,NUT carcinoma (Schedule C),1 (4.5) n (%)
same,Best overall response: progressive disease,NUT carcinoma (Schedule C),9 (40.9) n (%)
same,Best overall response: stable disease,NUT carcinoma (Schedule C),6 (27.3) n (%)
same,Disease control,NUT carcinoma (Schedule C),8 (36.4) n (%)
same,Median OS,NUT carcinoma (Schedule C),15.4 weeks
same,Median PFS,NUT carcinoma (Schedule C),7.8 weeks
same,Objective response,NUT carcinoma (Schedule C),2 (9.1) n (%)
same,Median OS,NUT carcinoma total,15.4 weeks
same,Best overall response: complete response,SCLC,0 (0.0) n (%)
same,Best overall response: not evaluable,SCLC,3 (25.0) n (%)
same,Best overall response: partial response,SCLC,0 (0.0) n (%)
same,Best overall response: progressive disease,SCLC,8 (66.7) n (%)
same,Best overall response: stable disease,SCLC,1 (8.3) n (%)
same,Disease control,SCLC,1 (8.3) n (%)
same,Median PFS,SCLC,5.6 weeks
same,Objective response,SCLC,0 (0.0) n (%)
same,Best overall response: complete response,mCRPC,0 (0.0) n (%)
same,Best overall response: not evaluable,mCRPC,4 (36.4) n (%)
same,Best overall response: partial response,mCRPC,1 (9.1) n (%)
same,Best overall response: progressive disease,mCRPC,4 (36.4) n (%)
same,Best overall response: stable disease,mCRPC,2 (18.2) n (%)
same,Disease control,mCRPC,3 (27.3) n (%)
same,Median PFS,mCRPC,11.9 weeks
same,Objective response,mCRPC,1 (9.1) n (%)
same,Best overall response: complete response,total,1 (1.3) n (%)
same,Best overall response: not evaluable,total,17 (21.5) n (%)
same,Best overall response: partial response,total,3 (3.8) n (%)
same,Best overall response: progressive disease,total,40 (50.6) n (%)
same,Best overall response: stable disease,total,18 (22.8) n (%)
same,Disease control,total,22 (27.8) n (%)
same,Median PFS,total,6.9 weeks
same,Objective response,total,4 (5.1) n (%)
